This passage reports IC50 results from US20220251141A1, “IMMUNOMODULATORS” (Bristol-Myers Squibb Company, priority 2019, published 2022).

Molecules are shown by their SMILES. Structures can show the parent of a compound that is named as a salt. Numbered stars: 1 amine (or outer) side, 2 acyl side, 3 side chain; on linkers, the order of the positions; unused ones are H or OH. Bridge positions count the residues as written; N and C are the ends. Square brackets hold non-standard residues; d marks the D form. Side chains are listed from the residue outwards. Peptide text beside a SMILES is read from it. * marks the point of attachment. X6 = CC(C)C[C@H](N[*:1])C(=O)C1C[C@H](O)C[C@H]1C(=O)[*:2]; Trp(1-CH2CO2Me) = COC(=O)Cn1cc(C[C@H](N)C(=O)O)c2ccccc21; Trp(1-CH2COOH) = N[C@@H](Cc1cn(CC(=O)O)c2ccccc12)C(=O)O; X15 = CCNC(=S)NCC[C@H](N[*:1])C(=O)[*:2]; X14 = CCNC(=S)NC[C@H](N[*:1])C(=O)[*:2]; Phe(4-F) = N[C@@H](Cc1ccc(F)cc1)C(=O)O; X8 = N#CNC[C@H](N[*:1])C(=O)[*:2]; Hyp = O=C(O)[C@@H]1C[C@@H](O)CN1; NMeNle = CCCC[C@H](NC)C(=O)O; NMeC = CN[C@@H](CS)C(=O)O; Pip = O=C(O)[C@@H]1CCCCN1; NMeA = CN[C@@H](C)C(=O)O; X7 = COc1ccc(CN*)c(OC)c1; Dab = NCC[C@H](N)C(=O)O; X13 = CCCCCCCCCCOC(=O)*; Dap = NC[C@H](N)C(=O)O; NH(heptyl) = CCCCCCCN*; Boc = CC(C)(C)OC(=O)*; CO = O=C([*:1])[*:2]; Piv = CC(C)(C)C(=O)*; Tfa = O=C(C(F)(F)F)*; Moc = COC(=O)* Bounds are passed on as bounds.

The test concerns the target T1, PD-1/PD-L1 (Homo sapiens, UniProt Q9NZQ7).
T1 construct: TVMV protease site linker (C); made in house; host or cells: HEK293T cells
Description: PD-1/PD-L1 Homogenous Time-Resolved Fluorescence (HTRF) binding assay. As to conditions: PD-L1-His 10 nM final, PD-1-Ig 20 nM final; inhibitors pre-incubated with PD-L1-His for 15 m. The text has this:
The ability of the compounds of formula (I) to bind to PD-L1 was investigated using a PD-1/PD-L1 Homogenous Time-Resolved Fluorescence (HTRF) binding assay.
The interaction of PD-1 and PD-L1 can be assessed using soluble, purified preparations of the extracellular domains of the two proteins. The PD-1 and PD-L1 protein extracellular domains were expressed as fusion proteins with detection tags, for PD-1, the tag was the Fc portion of Immunoglobulin (PD-1-Ig) and for PD-L1 it was the 6 histidine motif (PD-L1-His). All binding studies were performed in an HTRF assay buffer consisting of dPBS supplemented with 0.1% […] bovine serum albumin and 0.05% (v/v) Tween-20. For the h/PD-L1-His binding assay, inhibitors were pre-incubated with PD-L1-His (10 nM final) for 15 m in 4 μl of assay buffer, followed by addition of PD-1-Ig (20 nM final) in 1 μl of assay buffer and further incubation for 15 m. HTRF detection was achieved using europium cryptate-labeled anti-Ig (1 nM final) and allophycocyanin (APC) labeled anti-His (20 nM final). Antibodies were diluted in HTRF detection buffer and 5 μl was dispensed on top of the binding reaction. The reaction mixture was allowed to equilibrate for 30 minutes and the resulting signal (665 nm/620 nm ratio) was obtained using an EnVision fluorometer. Additional binding assays were established between the human proteins PD-1-Ig/PD-L2-His (20 & 5 nM, respectively) and CD80-His/PD-L1-Ig (100 & 10 nM, respectively).
Recombinant Proteins: Human PD-1 (25-167) with a C-terminal human Fc domain of immunoglobulin G (Ig) epitope tag [hPD-1 (25-167)-3S-IG] and human PD-L1 (18-239) with a C-terminal His epitope tag [hPD-L1(18-239)-TVMV-His] were expressed in HEK293T cells and purified sequentially by Protein A affinity chromatography and size exclusion chromatography. Human PD-L2-His and CD80-His was obtained through commercial sources.
Table 3 lists the IC50 values for representative examples of this disclosure measured in the PD-1/PD-L1 Homogenous Time-Resolved Fluorescence (HTRF) binding assay.
In the case of `CCCC[C@H]1C(=O)N(C)[C@@H](CCCC)C(=O)N[C@@H](CC(C)C)C(=O)N[C@H](C(=O)NCC(N)=O)CSCC(=O)N[C@@H](Cc2ccc(O)cc2)C(=O)N(C)[C@@H](C)C(=O)N[C@@H](CC(N)=O)C(=O)N2CCC[C@H]2C(=O)N[C@@H](CNC(=S)NCC)C(=O)N[C@@H](CC(C)C)C(=O)N2C[C@H](O)C[C@H]2C(=O)N[C@@H](Cc2c[nH]c3ccccc23)C(=O)N[C@@H](CCNC(=S)NCC)C(=O)N[C@@H](Cc2cn(CC(=O)O)c3ccccc23)C(=O)N1C` [Example 1026] ({CH2CO}-Y[NMeA]NP[X14]L[Hyp]W[X15][Trp(1-CH2COOH)][NMeNle][NMeNle]LCG-NH2; thioether N-14), the IC50 is 4.5 nM.
As for `CCCCCCCNC(=O)NCC[C@@H]1NC(=O)[C@H](Cc2c[nH]c3ccccc23)NC(=O)[C@@H]2C[C@@H](O)CN2C(=O)[C@H](CC(C)C)NC(=O)[C@H](CNC(=O)NCCCCCCC)NC(=O)[C@@H]2CCCN2C(=O)[C@H](CC(N)=O)NC(=O)[C@H](C)N(C)C(=O)[C@H](Cc2ccc(O)cc2)NC(=O)CSC[C@@H](C(=O)NCC(N)=O)NC(=O)[C@H](CC(C)C)NC(=O)[C@H](CCCC)N(C)C(=O)[C@H](CCCC)N(C)C(=O)[C@H](Cc2cn(CC(=O)O)c3ccccc23)NC1=O` [Example 1035] ({CH2CO}-Y[NMeA]NP[Dap]([CO-NH(heptyl)])L[Hyp]W[Dab]([CO-NH(heptyl)])[Trp(1-CH2COOH)][NMeNle][NMeNle]LCG-NH2; thioether N-14), the IC50 came to 8.3 nM.
`CCCC[C@H]1C(=O)N(C)[C@@H](CCCC)C(=O)N[C@@H](CC(C)C)C(=O)N[C@H](C(=O)NCC(N)=O)CSCC(=O)N[C@@H](Cc2ccc(O)cc2)C(=O)N(C)[C@@H](C)C(=O)N[C@@H](CC(N)=O)C(=O)N2CCC[C@H]2C(=O)N[C@@H](CNC(=O)C(F)(F)F)C(=O)N[C@@H](CC(C)C)C(=O)N2C[C@H](O)C[C@H]2C(=O)N[C@@H](Cc2c[nH]c3ccccc23)C(=O)N[C@@H](CCNC(=O)C(F)(F)F)C(=O)N[C@@H](Cc2cn(CC(=O)O)c3ccccc23)C(=O)N1C` [Example 1007] ({CH2CO}-Y[NMeA]NP[Dap](Tfa)L[Hyp]W[Dab](Tfa)[Trp(1-CH2COOH)][NMeNle][NMeNle]LCG-NH2; thioether N-14) registered a half-maximal inhibitory concentration (IC50) of 3.3 nM.
As for `CCCC[C@H]1C(=O)N(C)[C@@H](CCCC)C(=O)N[C@@H](CC(C)C)C(=O)N[C@H](C(=O)NCC(N)=O)CSCC(=O)N[C@@H](Cc2ccc(O)cc2)C(=O)N(C)[C@@H](C)C(=O)N[C@@H](CC(N)=O)C(=O)N2CCC[C@H]2C(=O)N[C@@H](CNC(=O)NCc2ccc(OC)cc2OC)C(=O)N[C@@H](CC(C)C)C(=O)N2C[C@H](O)C[C@H]2C(=O)N[C@@H](Cc2c[nH]c3ccccc23)C(=O)N[C@@H](CCNC(=O)NCc2ccc(OC)cc2OC)C(=O)N[C@@H](Cc2cn(CC(=O)O)c3ccccc23)C(=O)N1C` [Example 1044] ({CH2CO}-Y[NMeA]NP[Dap]([CO-X7])L[Hyp]W[Dab]([CO-X7])[Trp(1-CH2COOH)][NMeNle][NMeNle]LCG-NH2; thioether N-14), the IC50 was 2.6 nM.
On to `CCCC[C@H]1C(=O)N(C)[C@@H](CCCC)C(=O)N[C@@H](CC(C)C)C(=O)N(C)[C@H](C(N)=O)CSCC(=O)N[C@@H](Cc2ccc(F)cc2)C(=O)N2CCCC[C@H]2C(=O)N[C@@H](CC(=O)N(C)C)C(=O)N2CCC[C@H]2C(=O)N[C@@H](Cc2c[nH]cn2)C(=O)N[C@@H](CC(C)C)C(=O)N2C[C@H](O)C[C@H]2C(=O)N[C@@H](Cc2c[nH]c3ccccc23)C(=O)N[C@@H](CO)C(=O)N[C@@H](Cc2cn(CC(=O)O)c3ccccc23)C(=O)N1C` [Example 10002] ({CH2CO}-[Phe(4-F)][Pip]D(NMe2)PHL[Hyp]WS[Trp(1-CH2COOH)][NMeNle][NMeNle]L[NMeC]-NH2; thioether N-14), for which the 50% inhibitory concentration (IC50) is 52 nM.
In the case of `CCCCCCCCCCOC(=O)NCC[C@@H]1NC(=O)[C@H](Cc2c[nH]c3ccccc23)NC(=O)[C@@H]2C[C@@H](O)CN2C(=O)[C@H](CC(C)C)NC(=O)[C@H](CNC(=O)OCCCCCCCCCC)NC(=O)[C@@H]2CCCN2C(=O)[C@H](CC(N)=O)NC(=O)[C@H](C)N(C)C(=O)[C@H](Cc2ccc(O)cc2)NC(=O)CSC[C@@H](C(=O)NCC(N)=O)NC(=O)[C@H](CC(C)C)NC(=O)[C@H](CCCC)N(C)C(=O)[C@H](CCCC)N(C)C(=O)[C@H](Cc2cn(CC(=O)OC)c3ccccc23)NC1=O` [Example 1015] ({CH2CO}-Y[NMeA]NP[Dap](X13)L[Hyp]W[Dab](X13)[Trp(1-CH2CO2Me)][NMeNle][NMeNle]LCG-NH2; thioether N-14) it was more than 10000 nM.
`CCCC[C@H]1C(=O)N(C)[C@@H](CCCC)C(=O)N[C@@H](CC(C)C)C(=O)N[C@H](C(=O)NCC(N)=O)CSCC(=O)N[C@@H](Cc2ccc(O)cc2)C(=O)N(C)[C@@H](C)C(=O)N[C@@H](CC(N)=O)C(=O)N2CCC[C@H]2C(=O)N[C@@H](CNC(=O)OC)C(=O)N[C@@H](CC(C)C)C(=O)N2C[C@H](O)C[C@H]2C(=O)N[C@@H](Cc2c[nH]c3ccccc23)C(=O)N[C@@H](CCNC(=O)OC)C(=O)N[C@@H](Cc2cn(CC(=O)OC)c3ccccc23)C(=O)N1C` [Example 1017] ({CH2CO}-Y[NMeA]NP[Dap](Moc)L[Hyp]W[Dab](Moc)[Trp(1-CH2CO2Me)][NMeNle][NMeNle]LCG-NH2; thioether N-14) showed an IC50 of 5.9 nM.
Molecule `CCCC[C@H]1C(=O)N(C)[C@@H](CCCC)C(=O)N[C@@H](CC(C)C)C(=O)N[C@H](C(=O)NCC(N)=O)CSCC(=O)N[C@@H](Cc2ccc(O)cc2)C(=O)N(C)[C@@H](C)C(=O)N[C@@H](CC(N)=O)C(=O)N2CCC[C@H]2C(=O)N[C@@H](CNC#N)C(=O)N[C@@H](CC(C)C)C(=O)N2C[C@H](O)C[C@H]2C(=O)N[C@@H](Cc2c[nH]c3ccccc23)C(=O)N[C@@H](CCN)C(=O)N[C@@H](Cc2cn(CC(=O)O)c3ccccc23)C(=O)N1C` [Example 1021] ({CH2CO}-Y[NMeA]NP[X8]L[Hyp]W[Dab][Trp(1-CH2COOH)][NMeNle][NMeNle]LCG-NH2; thioether N-14) showed an IC50 of 52 nM.
For the molecule `CCCC[C@H]1C(=O)N(C)[C@@H](CCCC)C(=O)N[C@@H](CC(C)C)C(=O)N[C@H](C(N)=O)CSCC(=O)N[C@@H](Cc2ccc(F)cc2)C(=O)N2CCCC[C@H]2C(=O)N[C@@H](CC(=O)O)C(=O)N2CCC[C@H]2C(=O)N[C@@H](CNC(=O)C(C)(C)C)C(=O)N[C@@H](CCCCN)C(=O)N2C[C@H](O)C[C@H]2C(=O)N[C@@H](Cc2c[nH]c3ccccc23)C(=O)N[C@@H](CCNC(=O)C(C)(C)C)C(=O)N[C@@H](Cc2cn(CC(=O)O)c3ccccc23)C(=O)N1C` [Example 20090] ({CH2CO}-[Phe(4-F)][Pip]DP[Dap](Piv)K[Hyp]W[Dab](Piv)[Trp(1-CH2COOH)][NMeNle][NMeNle]LC-NH2; thioether N-14), the IC50 was found to be 11.1 nM.
For the molecule `CCCC[C@H]1C(=O)N(C)[C@@H](CCCC)C(=O)N[C@@H](CCC(=O)O)C(=O)N[C@H](C(N)=O)CSCC(=O)N[C@@H](Cc2ccc(F)cc2)C(=O)N2CCCC[C@H]2C(=O)N[C@@H](CC(N)=O)C(=O)N2CCC[C@H]2C(=O)N[C@@H](CNC(=O)C(C)(C)C)C(=O)N[C@@H](CC(C)C)C(=O)N2C[C@H](O)C[C@H]2C(=O)N[C@@H](Cc2c[nH]c3ccccc23)C(=O)N[C@@H](CCN)C(=O)N[C@@H](Cc2cn(CC(=O)O)c3ccccc23)C(=O)N1C` [Example 20130] ({CH2CO}-[Phe(4-F)][Pip]NP[Dap](Piv)L[Hyp]W[Dab][Trp(1-CH2COOH)][NMeNle][NMeNle]EC-NH2; thioether N-14), the IC50 came out at 11.8 nM.
`CCCC[C@H]1C(=O)N(C)[C@@H](CCCC)C(=O)N[C@@H](CCC(=O)O)C(=O)N[C@H](C(N)=O)CSCC(=O)N[C@@H](Cc2ccc(F)cc2)C(=O)N2CCCC[C@H]2C(=O)N[C@@H](CC(N)=O)C(=O)N2CCC[C@H]2C(=O)N[C@@H](CNC(=O)C(C)(C)C)C(=O)N[C@@H](CC(C)C)C(=O)N2CCC[C@H]2C(=O)N[C@@H](Cc2c[nH]c3ccccc23)C(=O)N[C@@H](CCN)C(=O)N[C@@H](Cc2cn(CC(=O)O)c3ccccc23)C(=O)N1C` [Example 20110] ({CH2CO}-[Phe(4-F)][Pip]NP[Dap](Piv)LPW[Dab][Trp(1-CH2COOH)][NMeNle][NMeNle]EC-NH2; thioether N-14) returned an IC50 of 11.7 nM.
In the case of `CCCC[C@H]1C(=O)N(C)[C@@H](CCCC)C(=O)N[C@@H](CC(C)C)C(=O)N[C@H](C(=O)NCC(N)=O)CSCC(=O)N[C@@H](Cc2ccc(O)cc2)C(=O)N(C)[C@@H](C)C(=O)N[C@@H](CC(N)=O)C(=O)N2CCC[C@H]2C(=O)N[C@@H](CNC(=O)OC(C)(C)C)C(=O)N[C@@H](CC(C)C)C(=O)C2C[C@H](O)C[C@H]2C(=O)N[C@@H](Cc2c[nH]c3ccccc23)C(=O)N[C@@H](CCNC(=O)OC(C)(C)C)C(=O)N[C@@H](Cc2cn(CC(=O)OC)c3ccccc23)C(=O)N1C` (stereo partly drawn) [Example 2002] ({CH2CO}-Y[NMeA]NP[Dap](Boc)[X6]W[Dab](Boc)[Trp(1-CH2CO2Me)][NMeNle][NMeNle]LCG-NH2; thioether N-13) it was 1.2 nM.
